Legend:
[1] = molecular target: T1, Human Melanocortin (MC4) (Homo sapiens, UniProt P32245); experiment: Radioligand binding, human melanocortin MC4 membranes, FlashPlate, [125I]-NDP-αMSH; conditions: compound at 10 μM; for A4 radioligand binding inhibition: human melanocortin MC4 membranes
T1 construct: purchased Perkin Elmer Biosignal
Outline: (§1)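 Cloned human receptor membranes were coated onto FlashPlate wells and incubated with radioligand and compound (added from a 0.5 mM DMSO daughter plate) for 1 hour at room temperature in the dark. Scintillation counting gave percent inhibition, with DMSO defining total and reference ligand defining non-specific binding.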

[2] = molecular target: T2, Human neurokinin (NK1) (Homo sapiens, UniProt P25103); experiment: Radioligand binding, human neurokinin NK1 membranes, filtration, [125I]-Substance P; conditions: compound at 10 μM; for A8 radioligand binding inhibition: human neurokinin NK1 membranes
T2 construct: purchased Perkin Elmer Biosignal
Outline: (§2)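 Membranes from cloned human receptors were incubated with compound and radioligand for 1 hour at room temperature. Bound ligand was collected on 0.3% PEI-soaked filters, washed with cold 50 mM Tris-HCl pH 7.4, and counted by scintillation. Percent inhibition was computed against DMSO totals and reference-ligand nonspecific wells.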

[3] = molecular target: T3, Human neuropeptide Y (NPY-Y1) (Homo sapiens, UniProt P25929); experiment: Radioligand binding, human neuropeptide Y NPY-Y1 membranes, FlashPlate, [125I]-PYY; conditions: compound at 10 μM; for A9 radioligand binding inhibition: human NPY-Y1 membranes
T3 construct: purchased Perkin Elmer Biosignal
T3 sequence (P25929 1-384): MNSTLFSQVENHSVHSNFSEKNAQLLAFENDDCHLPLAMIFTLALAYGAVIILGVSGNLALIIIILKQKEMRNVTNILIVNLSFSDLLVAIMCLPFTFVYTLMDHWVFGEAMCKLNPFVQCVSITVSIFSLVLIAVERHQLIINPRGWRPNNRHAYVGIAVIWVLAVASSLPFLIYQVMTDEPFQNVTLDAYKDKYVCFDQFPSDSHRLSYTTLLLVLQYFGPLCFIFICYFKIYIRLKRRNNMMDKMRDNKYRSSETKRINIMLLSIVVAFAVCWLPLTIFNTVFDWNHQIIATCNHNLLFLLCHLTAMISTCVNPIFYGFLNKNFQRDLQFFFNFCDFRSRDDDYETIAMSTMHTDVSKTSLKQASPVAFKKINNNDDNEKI
Outline: as §1

[4] = molecular target: T4, Human melanocortin (MC5) (Homo sapiens, UniProt P33032); experiment: Radioligand binding, human melanocortin MC5 membranes, FlashPlate, [125I]-NDP-αMSH; conditions: compound at 10 μM; for A5 radioligand binding inhibition: human melanocortin MC5 membranes
T4 construct: purchased Perkin Elmer Biosignal
Outline: as §1

[5] = molecular target: T5, Mouse urotensin (mUR2) (Mus musculus, UniProt Q8VIH9); experiment: Radioligand binding, mouse urotensin mUR2 membranes, FlashPlate, [125I]-Urotensin II; conditions: compound at 10 μM; for A11 radioligand binding inhibition: mouse urotensin mUR2 membranes
T5 construct: purchased Perkin Elmer Biosignal
T5 sequence (Q8VIH9 1-385): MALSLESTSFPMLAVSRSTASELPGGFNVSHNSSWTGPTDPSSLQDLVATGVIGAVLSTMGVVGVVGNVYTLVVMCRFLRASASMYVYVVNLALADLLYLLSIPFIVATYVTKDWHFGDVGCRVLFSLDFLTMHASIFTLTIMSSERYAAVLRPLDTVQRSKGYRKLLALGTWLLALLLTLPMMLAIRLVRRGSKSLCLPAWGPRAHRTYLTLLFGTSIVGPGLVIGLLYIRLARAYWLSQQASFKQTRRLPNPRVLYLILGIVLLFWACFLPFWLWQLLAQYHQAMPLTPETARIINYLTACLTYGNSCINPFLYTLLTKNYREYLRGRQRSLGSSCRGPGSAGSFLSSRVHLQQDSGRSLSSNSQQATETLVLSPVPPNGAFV
Outline: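 Cloned mouse urotensin (mUR2) receptor membranes from Perkin Elmer Biosignal were immobilized in FlashPlate microplates using a proprietary coating. Each well got 19.5 μl buffer, then 0.5 μl of DMSO, reference ligand, or compound. Adding 5 μl of [125I]-Urotensin II, diluted to 5× final concentration in binding buffer, started binding. Plates were sealed with TopSeal-A and incubated 1 hour at room temperature in the dark. Wells were counted for 30 seconds each on a TopCount after a 60-second delay, and percentage inhibition was calculated.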

[6] = molecular target: T6, Human opioid (ORL1) (Homo sapiens, UniProt P41146); experiment: Radioligand binding, human opioid ORL1 membranes, FlashPlate, [125I]-Nociceptin; conditions: compound at 10 μM; for A10 radioligand binding inhibition: human ORL1 membranes
T6 construct: purchased Perkin Elmer Biosignal
Outline: as §1

[7] = molecular target: T7, Human melanin-concentrating hormone (MCH1) (Homo sapiens, UniProt Q99705); experiment: Radioligand binding, human melanin-concentrating hormone MCH1 membranes, FlashPlate, [125I]-S36057; conditions: compound at 10 μM; for A6 radioligand binding inhibition: human MCH1 membranes
T7 construct: purchased Perkin Elmer Biosignal
Outline: as §1

[8] = molecular target: T8, Human κ-Opioid (KOP) (Homo sapiens, UniProt P41145); experiment: Radioligand binding, human κ-opioid (KOP) membranes, filtration, [3H]-Diprenorphine; conditions: compound at 10 μM; for A2 radioligand binding inhibition: human κ-opioid (KOP) membranes
T8 construct: purchased Perkin Elmer Biosignal
Outline: as §2

[9] = molecular target: T9, Human δ-opioid (DOP) (Homo sapiens, UniProt P41143); experiment: Radioligand binding, human δ-opioid (DOP) membranes, FlashPlate, [3H]-Bremazocine; conditions: compound at 10 μM; for A1 radioligand binding inhibition: human δ-opioid (DOP) membranes
T9 construct: purchased Perkin Elmer Biosignal
Outline: as §1

[10] = molecular target: T10, Human μ-opioid (MOP) (Homo sapiens, UniProt P35372); experiment: Radioligand binding, human μ-opioid (MOP) membranes, FlashPlate, [3H]-Naloxone; conditions: compound at 10 μM; for A7 radioligand binding inhibition: human μ-opioid (MOP) membranes
T10 construct: purchased Perkin Elmer Biosignal
Outline: as §1

[11] = molecular target: T11, Human Melanocortin (MC3) (Homo sapiens, UniProt P41968); experiment: Radioligand binding, human melanocortin MC3 membranes, FlashPlate, [125I]-NDP-αMSH; conditions: compound at 10 μM; for A3 radioligand binding inhibition: human melanocortin MC3 membranes
T11 construct: purchased Perkin Elmer Biosignal
Outline: as §1

T9 sequence (P41143 whole entry): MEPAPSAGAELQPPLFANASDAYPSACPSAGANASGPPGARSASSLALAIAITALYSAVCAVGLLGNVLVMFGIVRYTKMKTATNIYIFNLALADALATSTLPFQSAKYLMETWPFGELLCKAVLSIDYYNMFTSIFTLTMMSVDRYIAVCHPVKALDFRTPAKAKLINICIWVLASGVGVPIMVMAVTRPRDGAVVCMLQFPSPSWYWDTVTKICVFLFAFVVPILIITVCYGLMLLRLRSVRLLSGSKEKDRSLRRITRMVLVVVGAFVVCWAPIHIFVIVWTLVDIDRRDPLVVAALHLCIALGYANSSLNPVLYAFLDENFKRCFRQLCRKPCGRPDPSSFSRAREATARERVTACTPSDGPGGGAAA
T6 sequence (P41146 whole entry): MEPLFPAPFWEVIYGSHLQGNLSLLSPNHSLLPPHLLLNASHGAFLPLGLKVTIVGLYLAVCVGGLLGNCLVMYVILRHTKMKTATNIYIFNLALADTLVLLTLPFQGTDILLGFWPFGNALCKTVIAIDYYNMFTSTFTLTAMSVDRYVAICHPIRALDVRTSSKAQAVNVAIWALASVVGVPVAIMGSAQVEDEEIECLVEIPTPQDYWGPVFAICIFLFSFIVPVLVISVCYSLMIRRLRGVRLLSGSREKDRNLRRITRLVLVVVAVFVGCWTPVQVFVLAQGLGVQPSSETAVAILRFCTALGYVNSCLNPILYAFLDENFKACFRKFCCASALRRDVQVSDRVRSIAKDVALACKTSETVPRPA
T7 sequence (Q99705 whole entry): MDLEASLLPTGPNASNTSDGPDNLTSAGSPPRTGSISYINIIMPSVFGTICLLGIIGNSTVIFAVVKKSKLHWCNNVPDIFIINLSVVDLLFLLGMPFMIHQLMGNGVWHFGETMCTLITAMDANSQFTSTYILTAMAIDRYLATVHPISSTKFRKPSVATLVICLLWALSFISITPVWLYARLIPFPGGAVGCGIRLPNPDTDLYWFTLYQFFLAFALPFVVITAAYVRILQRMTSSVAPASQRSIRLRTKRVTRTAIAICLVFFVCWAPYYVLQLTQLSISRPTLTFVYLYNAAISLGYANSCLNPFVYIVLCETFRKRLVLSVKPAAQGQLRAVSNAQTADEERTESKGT
T10 sequence (P35372 whole entry): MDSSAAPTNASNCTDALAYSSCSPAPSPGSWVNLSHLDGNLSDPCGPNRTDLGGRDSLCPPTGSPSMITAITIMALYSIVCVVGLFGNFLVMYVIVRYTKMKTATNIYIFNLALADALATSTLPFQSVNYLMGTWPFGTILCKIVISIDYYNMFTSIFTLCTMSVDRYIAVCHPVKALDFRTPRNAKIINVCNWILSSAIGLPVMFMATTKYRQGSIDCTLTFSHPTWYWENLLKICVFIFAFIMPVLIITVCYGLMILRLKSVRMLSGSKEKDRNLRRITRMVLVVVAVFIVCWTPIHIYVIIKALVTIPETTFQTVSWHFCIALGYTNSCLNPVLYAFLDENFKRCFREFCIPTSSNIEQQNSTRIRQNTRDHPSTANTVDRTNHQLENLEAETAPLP
T8 sequence (P41145 whole entry): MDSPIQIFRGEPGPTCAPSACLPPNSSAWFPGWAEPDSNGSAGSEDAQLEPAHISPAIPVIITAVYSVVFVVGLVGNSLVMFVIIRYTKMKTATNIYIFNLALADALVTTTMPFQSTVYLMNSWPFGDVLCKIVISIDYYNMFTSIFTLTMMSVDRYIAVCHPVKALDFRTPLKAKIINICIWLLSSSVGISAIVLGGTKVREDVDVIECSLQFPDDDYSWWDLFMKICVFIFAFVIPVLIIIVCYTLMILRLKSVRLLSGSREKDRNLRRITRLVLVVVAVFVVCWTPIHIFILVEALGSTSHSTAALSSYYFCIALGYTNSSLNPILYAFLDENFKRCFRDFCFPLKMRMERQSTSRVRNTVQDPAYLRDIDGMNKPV
T2 sequence (P25103 whole entry): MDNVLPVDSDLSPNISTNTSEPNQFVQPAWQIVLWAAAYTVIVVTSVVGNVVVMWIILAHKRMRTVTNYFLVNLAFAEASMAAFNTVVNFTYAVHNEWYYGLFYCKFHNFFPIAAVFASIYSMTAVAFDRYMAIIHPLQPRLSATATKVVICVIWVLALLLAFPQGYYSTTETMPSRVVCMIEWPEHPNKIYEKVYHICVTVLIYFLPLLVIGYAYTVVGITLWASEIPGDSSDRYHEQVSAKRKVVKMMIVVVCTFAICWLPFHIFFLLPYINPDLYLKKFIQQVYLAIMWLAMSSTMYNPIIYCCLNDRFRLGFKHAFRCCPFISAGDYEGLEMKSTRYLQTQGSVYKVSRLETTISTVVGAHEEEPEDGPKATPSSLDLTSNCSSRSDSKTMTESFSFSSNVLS
T4 sequence (P33032 whole entry): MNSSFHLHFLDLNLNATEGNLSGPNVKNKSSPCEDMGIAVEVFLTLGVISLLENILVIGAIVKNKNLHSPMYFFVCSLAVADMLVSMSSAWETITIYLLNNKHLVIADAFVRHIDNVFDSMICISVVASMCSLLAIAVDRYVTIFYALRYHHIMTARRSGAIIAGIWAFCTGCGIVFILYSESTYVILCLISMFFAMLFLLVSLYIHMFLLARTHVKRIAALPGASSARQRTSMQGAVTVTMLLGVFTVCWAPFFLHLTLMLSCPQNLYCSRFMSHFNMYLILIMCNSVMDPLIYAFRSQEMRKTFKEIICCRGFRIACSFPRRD
T1 sequence (P32245 whole entry): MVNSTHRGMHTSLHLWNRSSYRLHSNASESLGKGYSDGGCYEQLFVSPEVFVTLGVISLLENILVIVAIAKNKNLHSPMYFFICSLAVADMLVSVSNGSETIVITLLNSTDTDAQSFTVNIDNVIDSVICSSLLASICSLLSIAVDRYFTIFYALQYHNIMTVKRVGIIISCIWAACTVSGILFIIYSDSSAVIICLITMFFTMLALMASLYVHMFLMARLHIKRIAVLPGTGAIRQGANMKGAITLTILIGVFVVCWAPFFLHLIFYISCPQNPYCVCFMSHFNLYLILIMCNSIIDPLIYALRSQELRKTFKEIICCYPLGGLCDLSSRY
T11 sequence (P41968 whole entry): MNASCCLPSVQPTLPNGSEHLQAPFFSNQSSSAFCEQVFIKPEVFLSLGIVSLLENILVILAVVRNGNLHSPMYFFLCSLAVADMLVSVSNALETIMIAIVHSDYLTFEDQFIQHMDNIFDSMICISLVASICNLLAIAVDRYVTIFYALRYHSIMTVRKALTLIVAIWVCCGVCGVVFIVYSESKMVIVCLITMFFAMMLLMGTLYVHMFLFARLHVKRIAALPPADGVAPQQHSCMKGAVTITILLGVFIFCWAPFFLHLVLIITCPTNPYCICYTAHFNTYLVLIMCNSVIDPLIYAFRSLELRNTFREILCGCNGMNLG

Row | SMILES | A4 radioligand binding, percentage inhibition ([1]; [125I]-NDP-αMSH) | A8 radioligand binding, percentage inhibition ([2]; [125I]-Substance P) | A9 radioligand binding, percentage inhibition ([3]; [125I]-PYY) | A5 radioligand binding, percentage inhibition ([4]; [125I]-NDP-αMSH) | A11 radioligand binding, percentage inhibition ([5]; [125I]-Urotensin II) | A10 radioligand binding, percentage inhibition ([6]; [125I]-Nociceptin) | A6 radioligand binding, percentage inhibition ([7]; [125I]-S36057) | A2 radioligand binding, percentage inhibition ([8]; [3H]-Diprenorphine) | A1 radioligand binding, percentage inhibition ([9]; [3H]-Bremazocine) | A7 radioligand binding, percentage inhibition ([10]; [3H]-Naloxone) | A3 radioligand binding, percentage inhibition ([11]; [125I]-NDP-αMSH) | A4 radioligand binding inhibition [1] | A8 radioligand binding inhibition [2] | A9 radioligand binding inhibition [3] | A5 radioligand binding inhibition [4] | A11 radioligand binding inhibition [5] | A10 radioligand binding inhibition [6] | A6 radioligand binding inhibition [7] | A2 radioligand binding inhibition [8] | A1 radioligand binding inhibition [9] | further results
1 | NCCC(=O)NC1C(OCc2ccc(Cl)cc2)OC(COCc2ccc3ccccc3c2)C(O)C1OCc1ccccc1 (single isomer, unassigned) [compound 483] |  |  |  |  |  |  |  |  |  |  |  |  |  |  |  |  |  |  |  |  | A4: inhibition of radioligand binding, human melanocortin (MC4) ([1]; [125I]-NDP-αMSH): − (“−” indicates less than 50% inhibition at 10 μM); A8: inhibition of radioligand binding, human neurokinin (NK1) ([2]; [125I]-Substance P): + (“+” indicates greater than 50% inhibition at 10 μM); A9: inhibition of radioligand binding, human neuropeptide Y (NPY-Y1) ([3]; [125I]-PYY): − (“−” indicates less than 50% inhibition at 10 μM); A5: inhibition of radioligand binding, human melanocortin (MC5) ([4]; [125I]-NDP-αMSH): + (“+” indicates greater than 50% inhibition at 10 μM); A11: inhibition of radioligand binding, mouse urotensin (mUR2) ([5]; [125I]-Urotensin II): − (“−” indicates less than 50% inhibition at 10 μM); A10: inhibition of radioligand binding, human opioid (ORL1) ([6]; [125I]-Nociceptin): − (“−” indicates less than 50% inhibition at 10 μM); A6: inhibition of radioligand binding, human melanin-concentrating hormone (MCH1) ([7]; [125I]-S36057): − (“−” indicates less than 50% inhibition at 10 μM); A2: inhibition of radioligand binding, human κ-opioid (KOP) ([8]; [3H]-Diprenorphine): − (“−” indicates less than 50% inhibition at 10 μM); A1: inhibition of radioligand binding, human δ-opioid (DOP) ([9]; [3H]-Bremazocine): − (“−” indicates less than 50% inhibition at 10 μM); A7: inhibition of radioligand binding, human μ-opioid (MOP) ([10]; [3H]-Naloxone): − (“−” indicates less than 50% inhibition at 10 μM); A3: inhibition of radioligand binding, human melanocortin (MC3) ([11]; [125I]-NDP-αMSH): − (“−” indicates less than 50% inhibition at 10 μM)
2 | CO[C@H]1[C@H](O)[C@@H](COCc2cccc(O)c2)OC(OCc2ccc(Cl)cc2)[C@@H]1NC(=O)CCCN (stereo partly drawn) [compound 156] | − (“−” indicates less than 50% inhibition at 10 μM) | + (“+” indicates greater than 50% inhibition at 10 μM) | − (“−” indicates less than 50% inhibition at 10 μM) | + (“+” indicates greater than 50% inhibition at 10 μM) | − (“−” indicates less than 50% inhibition at 10 μM) | − (“−” indicates less than 50% inhibition at 10 μM) | − (“−” indicates less than 50% inhibition at 10 μM) | − (“−” indicates less than 50% inhibition at 10 μM) | − (“−” indicates less than 50% inhibition at 10 μM) | − (“−” indicates less than 50% inhibition at 10 μM) | − (“−” indicates less than 50% inhibition at 10 μM) |  |  |  |  |  |  |  |  |  | 
3 | CO[C@H]1[C@H](O)[C@@H](COCc2cccc(O)c2)OC(OCc2ccccc2)[C@@H]1NC(=O)CCCNC(=N)N (stereo partly drawn) [compound 154] | − (“−” indicates less than 50% inhibition at 10 μM) | + (“+” indicates greater than 50% inhibition at 10 μM) | − (“−” indicates less than 50% inhibition at 10 μM) | − (“−” indicates less than 50% inhibition at 10 μM) | − (“−” indicates less than 50% inhibition at 10 μM) | − (“−” indicates less than 50% inhibition at 10 μM) | − (“−” indicates less than 50% inhibition at 10 μM) | − (“−” indicates less than 50% inhibition at 10 μM) | − (“−” indicates less than 50% inhibition at 10 μM) | − (“−” indicates less than 50% inhibition at 10 μM) | − (“−” indicates less than 50% inhibition at 10 μM) |  |  |  |  |  |  |  |  |  | 
4 | CO[C@H]1[C@H](O)[C@@H](COCc2ccc3ccccc3c2)OC(OCc2cccc(O)c2)[C@@H]1NC(=O)CCCN (stereo partly drawn) [compound 167] | − (“−” indicates less than 50% inhibition at 10 μM) | + (“+” indicates greater than 50% inhibition at 10 μM) | − (“−” indicates less than 50% inhibition at 10 μM) | − (“−” indicates less than 50% inhibition at 10 μM) | − (“−” indicates less than 50% inhibition at 10 μM) | − (“−” indicates less than 50% inhibition at 10 μM) | − (“−” indicates less than 50% inhibition at 10 μM) | − (“−” indicates less than 50% inhibition at 10 μM) | − (“−” indicates less than 50% inhibition at 10 μM) | − (“−” indicates less than 50% inhibition at 10 μM) | − (“−” indicates less than 50% inhibition at 10 μM) |  |  |  |  |  |  |  |  |  | 
5 | COC[C@H]1OC(OCCc2ccccc2)[C@H](NC(=O)CCNC(=N)N)[C@@H](OCc2ccc(Cl)cc2)[C@@H]1O (stereo partly drawn) [compound 49] |  |  |  |  |  |  |  |  |  |  |  | + (“+” indicates greater than 50% inhibition at 10 μM) | + (“+” indicates greater than 50% inhibition at 10 μM) | − (“−” indicates less than 50% inhibition at 10 μM) | − (“−” indicates less than 50% inhibition at 10 μM) | − (“−” indicates less than 50% inhibition at 10 μM) | − (“−” indicates less than 50% inhibition at 10 μM) | − (“−” indicates less than 50% inhibition at 10 μM) | − (“−” indicates less than 50% inhibition at 10 μM) | − (“−” indicates less than 50% inhibition at 10 μM) | A7 radioligand binding inhibition [10]: − (“−” indicates less than 50% inhibition at 10 μM); A3 radioligand binding inhibition [11]: − (“−” indicates less than 50% inhibition at 10 μM)
6 | COC[C@H]1OC(OCc2ccc(-c3ccccc3)cc2)[C@H](NC(=O)CCNC(=N)N)[C@@H](OCc2ccc(Cl)cc2)[C@@H]1O (stereo partly drawn) [compound 11] |  |  |  |  |  |  |  |  |  |  |  | + (“+” indicates greater than 50% inhibition at 10 μM) | + (“+” indicates greater than 50% inhibition at 10 μM) | − (“−” indicates less than 50% inhibition at 10 μM) | + (“+” indicates greater than 50% inhibition at 10 μM) | − (“−” indicates less than 50% inhibition at 10 μM) | − (“−” indicates less than 50% inhibition at 10 μM) | + (“+” indicates greater than 50% inhibition at 10 μM) | + (“+” indicates greater than 50% inhibition at 10 μM) | + (“+” indicates greater than 50% inhibition at 10 μM) | A7 radioligand binding inhibition [10]: + (“+” indicates greater than 50% inhibition at 10 μM); A3 radioligand binding inhibition [11]: − (“−” indicates less than 50% inhibition at 10 μM)
